Assay [1] has as its system CD11b expression in THP-1 (AML) cells. Briefly: LSD1 CD11b cellular assay (flow cytometry). It is filed as cell-based. Conditions: THP-1 cells, 4 days. On the procedure:
To analyze LSD1 inhibitor efficacy in cells, a CDL11b flow cytometry assay was performed. LSD1 inhibition induces CD11b expression in THP-1 (AML) cells which can be measured by flow cytometry. […] LSD 1 test compounds were serially diluted in DMSO. The dilutions were added to each well accordingly to a final concentration of 0.2% DMSO. The cells were incubated at 37 degrees Celsius in 5% CO2 for 4 days. 250 μL of each well was transferred to a well in a 96 well round bottom plate. The plate was centrifuged at 1200 rpm at 4 degrees Celsius in a Beckman Coulter Alegra 6KR centrifuge for 5 minutes. The media was removed leaving the cells at the bottom of the wells. The cells were washed in 100 μL cold HBSS (Hank's Balanced Salt Solution) plus 2% BSA (Bovine Serum Albumin) solution and centrifuged at 1200 rpm at 4 degrees Celsius for 5 minutes. The wash was removed. […] The cells were centrifuged and washed two times in 100 μl HBSS plus 2% BSA. After the final spin the cells were resuspended in 100 μL HBSS plus 2% BSA containing 1 ug/mL DAPI (4′,6-diamidino-2-phenylindole). The cells were then analyzed by flow cytometry in a BD FACSAria machine. Cells were analyzed for CD11b expression. The percent of CD11b expressing cells for each inhibitor concentration was used to determine an IC50 curve for each compound analyzed.

The target in assay [2] is full-length human LSD1 (Homo sapiens (Human), UniProt O60341). As to the kind of experiment: In vitro enzyme inhibition assay LSD-1 (TR-FRET). It is filed as biochemical. Conditions: H3K4me1-biotin peptide. On the procedure:
This assay determines the ability of a test compound to inhibit LSD1 demethylase activity.
The enzymatic assay of LSD1 activity is based on Time Resolved-Fluorescence Resonance Energy Transfer (TR-FRET) detection.
Plates were read by EnVision Multilabel Reader in TR-FRET mode (excitation at 320 nm, emission at 615 nm and 665 nm) after 1 hour incubation at room temperature.
The ability of the compounds disclosed herein to inhibit LSD1 activity was quantified and the respective IC50 value was determined.
In general terms: TR-FRET usually uses a lanthanide donor and a delayed reading to cut background.

Each structure is given as a SMILES string.

The term IC50 denotes the concentration at which inhibition is half-maximal. Low readings indicate higher potency, high ones lower potency. Take `COc1ccc(-n2c(-c3ccc(C#N)c(F)c3)nc(C(=O)N3CC[C@H](N)C3)c2F)cc1F` [Example 89, 4-[4-[(3S)-3-Aminopyrrolidine-1-carbonyl]-5-fluoro-1-(3-fluoro-4-methoxyphenyl)imidazol-2-yl]-2-fluorobenzonitrile]: the IC50 in assay [1] (Homo sapiens, 96 h) is 100 to 1000 nM; in assay [2], < 100 nM. As to `CN[C@H]1CCN(C(=O)c2cn(-c3ccc(OC)cc3)c(-c3ccc(C#N)c(F)c3)n2)C1` [Example 71, 2-Fluoro-4-[1-(4-methoxyphenyl)-4-[(3S)-3-(methylamino)pyrrolidine-1-carbonyl]imidazol-2-yl]benzonitrile], the IC50 is < 100 nM in assay [1] (Homo sapiens, 96 h) and < 100 nM in assay [2]. As for `Cc1c(C(=O)N2CC[C@H](N)C2)nc(-c2ccc(C#N)c(F)c2)n1-c1ccc(C2CC2)nc1` [Example 79, 4-[4-[(3S)-3-Aminopyrrolidine-1-carbonyl]-1-(6-cyclopropylpyridin-3-yl)-5-methylimidazol-2-yl]-2-fluorobenzonitrile], the IC50 in assay [1] (Homo sapiens, 96 h) was < 100 nM; in assay [2] it was < 100 nM. `Cc1c(C(=O)N[C@H]2CCN(C)C2)nc(-c2ccc(C#N)c(F)c2)n1-c1ccc2nn(C)cc2c1` [Example 109, 2-(4-Cyano-3-fluorophenyl)-5-methyl-1-(2-methylindazol-5-yl)-N-[(3S)-1-methylpyrrolidin-3-yl]imidazole-4-carboxamide]: in assay [2], the IC50 is < 100 nM. Take `Cc1c(C(=O)N2CC[C@H](N(C)C)C2)nc(-c2ccc(C#N)c(F)c2)n1-c1cc2c(Cl)n(C)nc2cc1F` [Example 110, 4-[1-(3-Chloro-6-fluoro-2-methylindazol-5-yl)-4-[(3S)-3-(dimethylamino)pyrrolidine-1-carbonyl]-5-methylimidazol-2-yl]-2-fluorobenzonitrile]: the IC50 in assay [1] (Homo sapiens, 96 h) is < 100 nM; in assay [2], < 100 nM. Regarding `CN1CC[C@H](NC(=O)c2cn(-c3ccc4nn(C)c(Cl)c4c3)c(-c3ccc(C#N)c(F)c3)n2)C1` [Example 107, 1-(3-Chloro-2-methylindazol-5-yl)-2-(4-cyano-3-fluorophenyl)-N-[(3S)-1-methylpyrrolidin-3-yl]imidazole-4-carboxamide], the IC50 in assay [2] was < 100 nM. On to `Cc1ccc(-c2c(-c3ccc(C#N)c(F)c3)cc(C(=O)N3CCC[C@@H](N)C3)n2CCCO)cc1` [Example 9], for which the IC50 in assay [1] (Homo sapiens, 96 h) is < 100 nM; in assay [2], < 100 nM. Take `Cn1cc2cc(-c3c(-c4ccc(C#N)c(F)c4)cc(C(=O)N[C@@H]4CCNC4)n3C)ccc2n1` [Example 30, N-((3R)pyrrolidin-3-yl)[4-(4-cyano-3-fluorophenyl)-1-methyl-5-(2-methyl(2H-indazol-5-yl))pyrrol-2-yl]carboxamide]: the IC50 in assay [1] (Homo sapiens, 96 h) is < 100 nM; in assay [2], < 100 nM. Take `Cc1c(C(=O)N[C@@H]2CCCNC2)nc(-c2ccc(C#N)c(F)c2)n1-c1ccc2nn(C)c(Cl)c2c1` [Example 117, 1-(3-Chloro-2-methylindazol-5-yl)-2-(4-cyano-3-fluorophenyl)-5-methyl-N-[(3R)-piperidin-3-yl]imidazole-4-carboxamide]: the IC50 in assay [1] (Homo sapiens, 96 h) was < 100 nM; in assay [2], < 100 nM. With `N#Cc1ccc(-c2nc(C(=O)N3CCC[C@@H](N)C3)c(Cl)n2-c2ccc(C3CC3)nc2)cc1F` [Example 80, 4-[4-[(3R)-3-Aminopiperidine-1-carbonyl]-5-chloro-1-(6-cyclopropylpyridin-3-yl)imidazol-2-yl]-2-fluorobenzonitrile], the IC50 in assay [1] (Homo sapiens, 96 h) is 100 to 1000 nM; in assay [2], < 100 nM. As to `Cn1cc2cc(-c3c(-c4ccc(C#N)c(F)c4)cc(C(=O)N4CCC[C@@H](N)C4)n3CCO)ccc2n1` [Example 35, (R)-4-(5-(3-aminopiperidine-1-carbonyl)-1-(2-hydroxyethyl)-2-(2-methyl-2H-indazol-5-yl)-1H-pyrrol-3-yl)-2-fluorobenzonitrile], the IC50 is < 100 nM in assay [1] (Homo sapiens, 96 h) and < 100 nM in assay [2].

`Cc1c(C(=O)N2CC[C@H](N)C2)nc(-c2ccc(C#N)c(F)c2)n1-c1cc(F)c2nn(C)cc2c1` [Example 50, 4-[4-[(3S)-3-Aminopyrrolidine-1-carbonyl]-1-(7-fluoro-2-methylindazol-5-yl)-5-methylimidazol-2-yl]-2-fluorobenzonitrile]: the IC50 in assay [1] (Homo sapiens, 96 h) is < 100 nM; in assay [2] it was < 100 nM.

In the case of `Cc1c(C(=O)N2CC[C@H](N(C)C)C2)nc(-c2ccc(C#N)c(F)c2)n1-c1ccc2c(cnn2C)c1` [Example 95, 4-[4-[(3S)-3-(Dimethylamino)pyrrolidine-1-carbonyl]-5-methyl-1-(1-methylindazol-5-yl)imidazol-2-yl]-2-fluorobenzonitrile], the IC50 is < 100 nM in assay [1] (Homo sapiens, 96 h) and < 100 nM in assay [2]. As for `Cn1cc2cc(-c3c(-c4ccc(C#N)c(F)c4)cc(C(=O)NCC4CCNC4)n3C)ccc2n1` (stereo in doubt) [Example 33, N-[((3S)pyrrolidin-3-yl)methyl][4-(4-cyano-3-fluorophenyl)-1-methyl-5-(2-methyl(2H-indazol-5-yl))pyrrol-2-yl]carboxamide], the IC50 in assay [1] is < 100 nM. For the molecule `Cn1c(C(=O)N2CCC[C@@H](N)C2)cc(-c2ccc(C#N)cc2)c1-c1ccncc1` [Example 6, 4-[5-(3-(R)-amino-piperidine-1-carbonyl)-1-methyl-2-pyridin-4-yl-1H-pyrrol-3-yl]-benzonitrile], the IC50 in assay [1] (Homo sapiens, 96 h) is < 100 nM; in assay [2], < 100 nM. `Cn1nc2ccc(-n3cc(C(=O)N[C@@H]4CCCNC4)nc3-c3ccc(C#N)c(F)c3)cc2c1Cl` [Example 114, 1-(3-Chloro-2-methylindazol-5-yl)-2-(4-cyano-3-fluorophenyl)-N-[(3R)-piperidin-3-yl]imidazole-4-carboxamide]: the IC50 was < 100 nM in assay [1] (Homo sapiens, 96 h) and < 100 nM in assay [2].

In the case of `CN[C@H]1CCN(C(=O)c2cn(-c3ccc4nn(C)c(Cl)c4c3)c(-c3ccc(C#N)c(F)c3)n2)C1` [Example 113, 4-[1-(3-Chloro-2-methylindazol-5-yl)-4-[(3S)-3-(methylamino)pyrrolidine-1-carbonyl]imidazol-2-yl]-2-fluorobenzonitrile], the IC50 in assay [1] (Homo sapiens, 96 h) was < 100 nM; in assay [2] it was < 100 nM. Consider `Cn1cc2cc(-n3cc(C(=O)N4CC[C@H](N)C4)nc3-c3ccc(C#N)c(F)c3)ccc2n1` [Example 26, 4-[4-[(3S)-3-aminopyrrolidine-1-carbonyl]-1-(2-methylindazol-5-yl)imidazol-2-yl]-2-fluorobenzonitrile], for which the IC50 in assay [2] is < 100 nM.

Consider `Cn1ncc2cc(-n3cc(C(=O)N4CC[C@H](N)C4)nc3-c3ccc(C#N)c(F)c3)ccc21` [Example 28, 4-[4-[(3S)-3-aminopyrrolidine-1-carbonyl]-1-(1-methylindazol-5-yl)imidazol-2-yl]-2-fluorobenzonitrile], for which the IC50 in assay [2] was < 100 nM. For `Cn1cc2cc(-n3cc(C(=O)N4CCC[C@@H](N)C4)nc3-c3ccc(C#N)c(F)c3)ccc2n1` [Example 25, 4-[4-[(3R)-3-aminopiperidine-1-carbonyl]-1-(2-methylindazol-5-yl)imidazol-2-yl]-2-fluorobenzonitrile], the IC50 in assay [2] was < 100 nM.

In assay [1] (Homo sapiens, 96 h), `COc1ccc(-c2c(-c3ccc(C#N)c(F)c3)cc(C(=O)N3CCC[C@@H](N)C3)n2CCCC(=O)O)cc1` [Example 41, 4-{5-[((3R)-3-aminopiperidyl)carbonyl]-3-(4-cyano-3-fluorophenyl)-2-(4-methoxyphenyl)pyrrolyl}butanoic acid] came in with an IC50 of 100 to 1000 nM.

On to `Cc1c(C(=O)N[C@@H]2CCN(C)C2)nc(-c2ccc(C#N)c(F)c2)n1-c1ccc2nn(C)cc2c1` [Example 108, 2-(4-Cyano-3-fluorophenyl)-5-methyl-1-(2-methylindazol-5-yl)-N-[(3R)-1-methylpyrrolidin-3-yl]imidazole-4-carboxamide], for which, in assay [2], the IC50 was < 100 nM.

For the molecule `COc1ccc(-c2c(-c3ccc(C#N)c(F)c3)cc(C(=O)N3CCC[C@@H](N)C3)n2CC(N)=O)cc1` [Example 37, (R)-2-(5-(3-aminopiperidine-1-carbonyl)-3-(4-cyano-3-fluorophenyl)-2-(4-methoxyphenyl)-1H-pyrrol-1-yl)acetamide], the concentration for half-maximal inhibition (IC50) in assay [2] was < 100 nM. Same read-out and setting: the figure for `CN1CC[C@@H](NC(=O)c2cn(-c3ccc4nn(C)c(Cl)c4c3)c(-c3ccc(C#N)c(F)c3)n2)C1` [Example 106, 1-(3-Chloro-2-methylindazol-5-yl)-2-(4-cyano-3-fluorophenyl)-N-[(3R)-1-methylpyrrolidin-3-yl]imidazole-4-carboxamide] is < 100 nM. Still for that read-out and setting: the figure for `Cn1ncc2cc(-n3cc(C(=O)N4CCC[C@@H](N)C4)nc3-c3ccc(C#N)c(F)c3)ccc21` [Example 27, 4-[4-[(3R)-3-aminopiperidine-1-carbonyl]-1-(1-methylindazol-5-yl)imidazol-2-yl]-2-fluorobenzonitrile] is < 100 nM.

The record behind these values is patent US10626103B2, “Inhibitor of lysine specific demethylase-1” (CELGENE QUANTICEL RESEARCH, INC., priority 2014, dated 2020).
